This assay deals with T1, Dihydrofolate reductase (Homo sapiens, UniProt P00374).
T1 sequence (P00374 whole entry): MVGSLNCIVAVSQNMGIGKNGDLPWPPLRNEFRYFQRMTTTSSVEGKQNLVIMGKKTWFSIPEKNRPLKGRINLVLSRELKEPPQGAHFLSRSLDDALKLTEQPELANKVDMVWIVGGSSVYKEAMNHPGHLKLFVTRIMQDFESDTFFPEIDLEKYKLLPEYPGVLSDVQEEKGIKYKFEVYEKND
The experiment in a line: Inhibition of human DHFR.

Compound `CS(=O)(=O)c1ccc2nc(N)sc2c1` [6-(methylsulfonyl)benzo[d]thiazol-2-amine] came in with an IC50 of 1040 µM.
The same measure for `Nc1nc2ccc(OC(F)(F)F)cc2s1` [SMR000058231]: 312 µM; for `Nc1nnc(CCC(=O)c2cccs2)s1` [3-(5-Amino-[1,3,4]thiadiazol-2-yl)-1-(thiophen-2-yl)propan-1-one]: 300 µM.

Usually IC50 stands for the concentration that gives 50% inhibition. Read a high IC50 as a need for much substance.

These data come from BindingDB's records for doi:10.1021/jf103164r (Rutgers University, 2011).
